Assays:
microtubule = conditions: cited from earlier work
[1] = system: patient prostate tumors and PC3 xenograft tumors; assay: Doxorubicin concentration versus distance from tumor periphery (FIG. 4); assay type: in vitro ADME, human
Experimental: Histocultures of tumors were incubated with 1, 5 or 20:M doxorubicin as described in Example 1. […] At 4, 12, 24, 36, 48, and 72 hours, histocultures were collected and processed as described in Example 1. The fluorescence emitted by doxorubicin was visualized using fluorescence microscopy. The excitation and emission wavelengths were 546 nm and 565 nm, respectively. Microscopic images were captured using a Charged Couple Device (CCD) camera and the captured images were analyzed using Optimas image analysis software (Silver spring, MD). The doxorubicin concentration in tissues was quantified using standard curves (each curve contained six data points), established as follows. Samples for the standard curves were prepared by applying known amounts of doxorubicin in solution to microscope sections of blank dog prostate tissue. […] The average fluorescence intensity per area were measured. Plots of the fluorescence readings against the applied doxorubicin concentrations in the standard curve samples provided the standard curves used to quantify the doxorubicin in the actual samples. […]
FIG. 4 summarizes the drug concentration in tumor tissue, expressed as tissue-to-medium concentration ratio, as a function of the distance from the periphery of the tumor histocultures. […]

PC3 xenograft tumor [2] = assay: Doxorubicin accumulation and penetration in tumor histocultures (fluorescence microscopy); assay type: in vitro ADME, human; conditions: for Tissue-to-medium concentration ratio at 72 hr / Tissue concentration at 72 hr: PC3 xenograft tumor; for Tissue concentration at 72 hr: in µM; for distribution of fluorescence signal: 5 or 20 μM
Experimental: The androgen-independent human prostate PC3 cells were maintained as xenograft tumors in male nude mice according to the previously published procedures (Pretlow et al., 1993; Nagabhushan et al., 1996). Briefly, minced tumor tissue mixed with the same volume of Matrigel was implanted into both flanks of the nude mice at 0.3 ml per site. Tumors were harvested when they reached a size of 1 g at about 1.5 to 2 months after implantation.
(§1) In this example, the penetration of doxorubicin into multilayer tissue was monitored using prostate tumor specimens obtained from human cancer patients and using the human prostate PC3 xenograft tumor maintained in athymic mice. Doxorubicin was monitored by fluorescence.
(§2) Histocultures of tumors were incubated with 1, 5 or 20:M doxorubicin as described in Example 1. […] At 4, 12, 24, 36, 48, and 72 hours, histocultures were collected and processed as described in Example 1. The fluorescence emitted by doxorubicin was visualized using fluorescence microscopy. The excitation and emission wavelengths were 546 nm and 565 nm, respectively. Microscopic images were captured using a Charged Couple Device (CCD) camera and the captured images were analyzed using Optimas image analysis software (Silver spring, MD). The doxorubicin concentration in tissues was quantified using standard curves (each curve contained six data points), established as follows. Samples for the standard curves were prepared by applying known amounts of doxorubicin in solution to microscope sections of blank dog prostate tissue. The standard doxorubicin solutions (2:1) were pipetted on 10:m-thick blank tissue sections, and carefully spread over a surface area of approximately 1.5–2 cm^2. The standard slides were scanned using the same conditions as the samples. The average fluorescence intensity per area were measured. Plots of the fluorescence readings against the applied doxorubicin concentrations in the standard curve samples provided the standard curves used to quantify the doxorubicin in the actual samples. For the latter, at least three sections were used to obtain the mean value in one tumor, and at least three tumors were used to obtain the mean value at each time point.
(§3) The rate of doxorubicin penetration into patient and PC3 xenograft tumors was monitored using fluorescence microscopy.

[3] = system: human prostate tumor histocultures; conditions: cited from earlier work
PC3 xenograft tumor [4] = assay: Tumor cell density after doxorubicin treatment; assay type: cell-based, human; conditions: 5 or 20 μM
Experimental: The fractions of stromal tissue and tumor cells in each histoculture were measured using image analysis. Briefly, stromal and tumor cells of a 100× magnification field were outlined with the computer mouse. The sizes of each of these regions were determined via image analysis by counting the number of pixels in the region. […] Apoptotic cells were determined based on morphological changes in tumor cells such as chromatin condensation and margination, disappearance of nucleoli, formation of membrane blebs, apoptotic bodies and/or cell shrinkage (Kerr J F R et al. (1994) Cancer 73:2013). […] For each tumor piece, 50 to 100 images were processed, and the fractions of the tumor represented by tumor cells, stromal tissue, and interstitial space were calculated.

patient prostate tumors = assay: Doxorubicin accumulation and penetration in tumor histocultures (fluorescence microscopy); assay type: in vitro ADME, human; conditions: for Tissue concentration at 72 hr: in µM; for distribution of fluorescence signal: 5 or 20 μM
Experimental: as §1, §2, §3

CC(=O)O[C@H]1C(=O)[C@@]2(C)[C@H]([C@H](OC(=O)c3ccccc3)[C@]3(O)C[C@H](OC(=O)[C@H](O)[C@@H](NC(=O)c4ccccc4)c4ccccc4)C(C)=C1C3(C)C)[C@]1(OC(C)=O)CO[C@@H]1C[C@@H]2O [7-epitaxol]
microtubule binding affinity compared with paclitaxel (microtubule): similar

COc1cccc2c1C(=O)c1c(O)c3c(c(O)c1C2=O)C[C@@](O)(C(=O)CO)C[C@@H]3O[C@H]1C[C@H](N)[C@H](O)[C@H](C)O1 [doxorubicin]
equilibrium between far end (325 μm) and periphery (75 μm) concentration ([1]; 1 μM): did not reach equilibrium | time at which equilibrium between far end and periphery was attained ([1]; 5 and 20 μM): 36 h | PC3 xenograft-to-patient tumor concentration ratio at 72 hr (PC3 xenograft tumor [2]; 1 μM in culture medium): 1.15 | PC3 xenograft-to-patient tumor concentration ratio at 72 hr (PC3 xenograft tumor [2]; 5 μM in culture medium): 1.35 | PC3 xenograft-to-patient tumor concentration ratio at 72 hr (PC3 xenograft tumor [2]; 20 μM in culture medium): 1.5 | Tissue-to-medium concentration ratio at 72 hr (PC3 xenograft tumor [2]; 1 μM in culture medium): 33.6 ± 3.9 | Tissue concentration at 72 hr (PC3 xenograft tumor [2]; 1 μM in culture medium): 33.6 ± 3.9 | Tissue-to-medium concentration ratio at 72 hr (PC3 xenograft tumor [2]; 5 μM in culture medium): 42.7 ± 3.3 | Tissue concentration at 72 hr (PC3 xenograft tumor [2]; 5 μM in culture medium): 213 ± 16.4 | Tissue-to-medium concentration ratio at 72 hr (PC3 xenograft tumor [2]; 20 μM in culture medium): 55.3 ± 9.6 | Tissue concentration at 72 hr (PC3 xenograft tumor [2]; 20 μM in culture medium): 1107 ± 193 | drug distribution (PC3 xenograft tumor [2]; xenograft tumor, 1 μM, at 72 hr): remained confined to the periphery | distribution of fluorescence signal (PC3 xenograft tumor [2]; xenograft tumor, after 36 hr): evenly distributed | distribution of fluorescence signal (PC3 xenograft tumor [2]; xenograft tumor, first 24 hr): confined to the periphery | IC50 ([3]; human prostate tumor histocultures, read-out: IC50, inhibition of tumor cell growth): 61 nM | CC50 ([3]; human prostate tumor histocultures, read-out: LC50, tumor cell death): 2100 nM | concentration sufficient to produce 50% cell death ([3]; patient prostate tumors): 2.1 :M | concentration sufficient to produce 90% cell death ([3]; patient prostate tumors): 4.2 :M | concentration sufficient to produce 90% inhibition of tumor cell proliferation ([3]; patient prostate tumors): 0.4 :M | cell density in the periphery of the tumor (PC3 xenograft tumor [4]): decreased with time | Tissue-to-medium concentration ratio at 72 hr (patient prostate tumors; 1 μM in culture medium): 29.2 ± 7.8 | Tissue concentration at 72 hr (patient prostate tumors; 1 μM in culture medium): 29.2 ± 7.8 | drug distribution (patient prostate tumors; 1 μM, by 72 hr): distributed evenly throughout the patient tumors | Tissue-to-medium concentration ratio at 72 hr (patient prostate tumors; 5 μM in culture medium): 31.6 ± 14.2 | Tissue concentration at 72 hr (patient prostate tumors; 5 μM in culture medium): 158 ± 70.9 | Tissue-to-medium concentration ratio at 72 hr (patient prostate tumors; 20 μM in culture medium): 36.9 ± 26.5 | Tissue concentration at 72 hr (patient prostate tumors; 20 μM in culture medium): 739 ± 531 | distribution of fluorescence signal (patient prostate tumors; after 24 hr): evenly distributed throughout the histoculture | distribution of fluorescence signal (patient prostate tumors; first 12 hr): confined to the periphery

— patent US7217735B1, “Methods and compositions for enhancing delivery of therapeutic agents to tissues” (priority 1999, dated 2007)
